Measured values published in patent publication US20080071116A1, “Modulators of Lysophosphatidic Acid (Lpa) Signaling and the Use Thereof” (THE BOARD OF REGENTS OF THE UNIVERSITY OF TEXAS SYSTEM, priority 2004, published 2008).
Entries after “also recorded” stand apart in the source; their conditions may differ.

How the values were obtained:
Jurkat T cells = details: human Jurkat T cells; Xu et al. 1995; cited from earlier work
[1] = tested on: vasodilator-stimulated protein (VASP); test: VASP phosphorylation in PC-3 cells; format: cell-based, human
Description: (§1) The cells were then lysed in SDA sample buffer or ice-cold X-100 lysis buffer (1% Triton X-100, 50 mM HEPES [pH7.4], 150 mM NaCl, 1.5 mM MgCl2, 1 mM EGTA, 10% glycerol, 100 mM NaF, 10 mM Na pyrophosphate, and 1 mM aprotinin). Total cellular protein was resolved by SDS/PAGE, transferred to immobilon [poly (vinylidene difluoride)], and immunoblotted with antibodies following the protocols provided by manufactures. Immunocomplexes were visualized with an enhanced chemiluminescence detection kit (Amersham Pharmacia) using horseradish peroxidase-conjugated secondary antibodies (Bio-Rad).
To determine the mechanisms regulating LPA-induced cell migration, actin filament binding proteins that link receptor signaling to lamellipodia formation were evaluated.

HT29 cells [2] = test: calcium mobilization assay in colon cancer HT29 cells; format: cell-based
Description: (§2) The procedures for these calcium mobilization assays are as followed: OVCAR3 cells and PC-3 cells were cultured in RPMI 1640 medium with 10% FBS (fetal bovine serum). HT29 cells were cultured in DMEM (high glucose) medium with 10% FBS. All cells were cultured at about 37° C. in a humidified atmosphere with 5% CO2. After starvation in serum-free medium for about 12-24 hours, cells were harvested and loaded with about 1 μM of Indo-1 AM in serum-free medium for about 45 min at 37° C. Cells were washed in PBS and resuspended at 2×10^6 cells/ml in a [Ca^2+]i assay buffer (Sodium chloride, NaCl, about 140 mM, potassium chloride, KCl, about 2 mM, magnesium chloride, MgCl2, about 1 mM, calcium chloride, CaCl2, about 2 mM, in about 25 mM HEPES buffer at pH 7.4 with about 10 mM of glucose). Cytoplasmic [Ca^2+]i was determined at an excitation wavelength of about 331 nm and an emission wavelength of 410 nm using a fluorescence spectrophotometer (Hitachi, F-4000). Approximately 3×10^6 cells were used for [Ca^2+]l determination in a stirred quartz cuvette kept at about 37° C. OMPT or 18:1 LPA was dissolved in about 0.1% BSA/PBS solution and applied immediately to the cells. To test other LPA derivatives of the invention, cells were exposed to the derivatives for about 3 minutes or for a period of various times in time course related experiments before a LPA agonist, such as 18:1 LPA, OMPT, or other LPAs was applied into the cuvette.
(§3) The concentration of calcium mobilization giving the half-maximal response (EC50) was obtained from the concentration-response curve fitted to a sigmoidal logistic equation, with the maximal calcium response set to 100% using the GraphPad Prism. Maximal response value is expressed as mean +/−s.e.m. EC50 value is expressed with 95% confidence.

PC-3 cells [3] = test: calcium mobilization assay in androgen insensitive prostate cancer PC-3 cells; format: cell-based, human
Description: as §2, §3

DU145 cells [4] = test: calcium mobilization assay in androgen insensitive prostate cancer DU145 cells; format: cell-based, human
PC-3 cells [5] = test: lamellipodia formation in PC-3 cells; format: cell-based, human; details: 30 μM; for effect on spontaneously activated lamellipodia: PC-3, serum-free, FIGS. 38-40; for inhibition of 18:1 LPA-induced lamellipodia formation: PC-3, FIGS. 42-44
PC-3 cells [6] = test: cell growth (cell viability) in PC-3 cells; format: cell-based, human; details: for inhibition of cell growth (cell viability): PC-3
DU145 cells [7] = test: cell growth (cell viability) in DU145 cells; format: cell-based, human
LPA1 receptor [8] = biological target: T1, LPA1 receptor (Homo sapiens, UniProt Q92633); test: calcium mobilization in Sf9 insect cells expressing LPA1; format: cell-based; details: Sf9 cells expressing LPA1
ERK1/2 = ERK1/2 (p42/p44-MAPK) phosphorylation immunoblot in prostate cancer cells; format: cell-based, human
Description: as §1

AKT = AKT phosphorylation immunoblot in prostate cancer cells; format: cell-based, human; details: PC-3 and DU145 cells
Description: as §1

p38-MAPK = p38-MAPK activation, phosphospecific antibodies; format: cell-based, human; details: PC-3 and DU145 cells
Description: as §1

PKA = PKA activation in PC-3 cells; format: cell-based, human
PC-3 cells [9] = test: cellular proliferation and growth factor withdrawal-induced apoptosis; format: cell-based, human
PC-3 cells [10] = test: membrane ruffling and cell migration in PC-3 cells; format: cell-based, human
HT29 cells [11] = test: lamellipodia formation in colon cancer HT29 cells; format: cell-based; details: HT29, FIG. 26
LPA3 receptor [12] = biological target: T2, LPA3 receptor (Homo sapiens, UniProt Q9UBY5); test: calcium mobilization in Sf9 insect cells expressing LPA3; format: cell-based; design: expressed in transfected cells; host or cells: Sf9 insect cells
T2 sequence (Q9UBY5 1-353): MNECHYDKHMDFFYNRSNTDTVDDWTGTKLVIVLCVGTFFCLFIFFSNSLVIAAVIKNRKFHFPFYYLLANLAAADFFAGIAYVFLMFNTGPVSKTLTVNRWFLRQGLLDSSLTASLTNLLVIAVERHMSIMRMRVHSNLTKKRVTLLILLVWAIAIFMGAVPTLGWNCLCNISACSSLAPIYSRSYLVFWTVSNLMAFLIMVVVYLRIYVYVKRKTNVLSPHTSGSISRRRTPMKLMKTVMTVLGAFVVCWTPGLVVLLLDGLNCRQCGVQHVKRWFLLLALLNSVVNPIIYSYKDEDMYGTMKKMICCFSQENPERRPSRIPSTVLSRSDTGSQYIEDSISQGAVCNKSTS

LPA2 receptor [13] = biological target: T3, LPA2 receptor (Homo sapiens, UniProt Q9HBW0); test: calcium mobilization in Sf9 insect cells expressing LPA2; format: cell-based; design: expressed in transfected cells; host or cells: Sf9 insect cells; details: Sf9 cells expressing LPA2; read-out: EC50 of increase in intracellular calcium concentration
LNCaP cells = test: calcium mobilization in androgen sensitive prostate cancer LNCaP cells; format: cell-based
interleukin-8 (IL-8) = test: IL-8 transcription and secretion; format: cell-based, human; details: PC-3 cells
LPA2 receptor [14] = biological target: T3, LPA2 receptor; test: HA-Erk1 phosphorylation in HEK 293 T cells transfected with LPA2; format: cell-based; design: expressed in transfected cells; details: LPA2 transfected HEK 293 T; 0.01, 0.1, or 1 μM
Source text: (§4) We have also tested kinase activation by the LPA3 receptor subtype using OMPT as a tool. We determined whether activation of the LPA3 receptor by OMPT can be linked to ERK activation (related to MAP kinase signaling pathway) in mammalian cells, HEK 293 T cells, by co-transfecting hemagglutinin (HA)-tagged Erk1 (HA-Erk1) with either a control vector or an expression vector having LPA1, LPA2, or LPA3. […] There is no phosphorylation of HA-Erk1 at lower concentration of LPA or OMPT in the absence of LPA receptors. […] Thus, the data confirmed that OMPT, an LPA derivative, is a selective agonist for LPA3 receptor subtype, capable of inducing MAPK activation.

LPA3 receptor [15] = biological target: T2, LPA3 receptor; test: HA-Erk1 phosphorylation in HEK 293 T cells transfected with LPA3; format: cell-based; design: expressed in transfected cells; details: LPA3 transfected HEK 293 T; 0.01, 0.1, or 1 μM
Source text: as §4

LPA1 receptor [16] = biological target: T1, LPA1 receptor; test: HA-Erk1 phosphorylation in HEK 293 T cells transfected with LPA1; format: cell-based; design: FLAG; expressed in transfected cells; host or cells: HEK 293 T cells; details: LPA1 transfected HEK 293 T; 0.01, 0.1, or 1 μM
Source text: as §4

OVCAR3 cells = test: calcium mobilization assay in ovarian cancer OVCAR3 cells; format: cell-based, human; details: OVCAR3
Description: as §2, §3

DU145 cells [17] = test: cell migration of DU145 cells; format: cell-based, human
[18] = in the presence of 10 μM of 18:1 LPA, FIGS. 45-47

T3 sequence (Q9HBW0 whole entry): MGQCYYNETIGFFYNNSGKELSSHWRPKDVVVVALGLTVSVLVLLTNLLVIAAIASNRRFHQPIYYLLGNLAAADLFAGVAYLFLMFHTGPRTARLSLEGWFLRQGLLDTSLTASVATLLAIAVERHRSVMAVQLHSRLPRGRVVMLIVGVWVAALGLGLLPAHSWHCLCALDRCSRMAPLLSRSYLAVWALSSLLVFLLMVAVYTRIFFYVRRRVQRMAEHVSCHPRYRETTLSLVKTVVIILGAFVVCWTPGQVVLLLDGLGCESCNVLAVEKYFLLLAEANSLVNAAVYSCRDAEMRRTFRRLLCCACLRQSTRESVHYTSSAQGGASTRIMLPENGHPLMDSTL
T1 sequence (Q92633 whole entry): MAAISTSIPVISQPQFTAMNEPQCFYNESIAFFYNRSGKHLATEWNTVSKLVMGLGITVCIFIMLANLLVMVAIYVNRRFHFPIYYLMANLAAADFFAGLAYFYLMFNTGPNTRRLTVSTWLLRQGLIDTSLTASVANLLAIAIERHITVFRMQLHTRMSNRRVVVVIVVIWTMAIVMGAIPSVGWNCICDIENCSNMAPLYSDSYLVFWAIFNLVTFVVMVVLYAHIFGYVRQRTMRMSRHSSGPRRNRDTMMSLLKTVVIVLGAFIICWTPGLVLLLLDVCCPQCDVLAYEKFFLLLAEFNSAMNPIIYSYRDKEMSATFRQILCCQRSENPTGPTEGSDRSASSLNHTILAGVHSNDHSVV

## lysophosphatidyl glycerol [LPG]
Jurkat T cells
  inhibition of LPA signaling: inhibitor of LPA signaling

## EGF: epidermal growth factor
[1]
  induction of VASP phosphorylation at Ser157 PKA site: Neither OMPT nor EGF increased phosphorylation of VASP

## CCCCCCCC/C=C\CCCCCCCC(=O)OC[C@@H](O)COP(=O)(O)OCC(O)CO (mixture of isomers) [18:1 LPG, 1-oleoyl-2-hydroxy-sn-glycero-3-[phospho-rac-(1-glycerol)]]
HT29 cells [2]; HT29 cells (only express LPA2), FIGS. 21-22
  inhibition of (18:1) LPA-induced calcium mobilization: effective inhibitors/antagonists
PC-3 cells [3]; FIGS. 19-20
  inhibition of OMPT-induced calcium mobilization: effective inhibitor/antagonist
DU145 cells [4]; 10 and 30 μM in FIGS. 15-18
  antagonism of 18:1 LPA-induced calcium mobilization: completely antagonized
DU145 cells [4]; 10 and 30 μM in FIGS. 15-18, listed as 18:1-acyl-LPG
  antagonism of 18:1 LPA-induced calcium mobilization: shifted to the right
PC-3 cells [5]
  effect on spontaneously activated lamellipodia: inhibit spontaneously activated lamellipodia
  inhibition of 18:1 LPA-induced lamellipodia formation: inhibition of 18:1 LPA-induced LPA2 receptor mediated lamellipodia formation
PC-3 cells [6]; [18]
  inhibition of cell growth (cell viability): inhibition of cell growth (cell viability) at high concentrations
PC-3 cells [6]; without LPA, FIGS. 46-47
  inhibition of cell growth (cell viability): inhibition of cell growth (cell viability) at high concentrations
PC-3 cells [6]; PC-3 cells
  reduction of cell viability / cell growth: reduced cell viability
DU145 cells [7]
  reduction of cell viability / cell growth: reduced cell viability

## CCCCCCCCCCCCCC(=O)OC[C@@H](O)COP(=O)(O)O [14:0 LPA, reference compound]
PC-3 cells [3]
  EC50: ~98 nM
LPA1 receptor [8]
  elevation of intracellular calcium: no elevated intracellular calcium concentration is observed
ERK1/2; PC-3 and DU145 cells
  activation of p42/p44-MAPK: efficiently activates p42/p44-MAPK
AKT
  activation of AKT: only marginal effects
p38-MAPK
  activation of p38-MAPK: only marginal effects
[1]
  induction of VASP phosphorylation at Ser157 PKA site: induced phosphorylation
PKA
  activation of PKA: efficiently activate PKA
PC-3 cells [9]
  cellular proliferation and prevention of growth factor withdrawal-induced apoptosis: does not increase cellular proliferation
PC-3 cells [10]
  stimulation of membrane ruffling and cell migration: stimulate membrane ruffling and cell migration
HT29 cells [11]
  activation of lamellipodia: strong activator of lamellipodia
LPA3 receptor [12]
  calcium mobilization: no elevated intracellular calcium concentration is observed
LPA2 receptor [13]
  EC50: 0.1 nM

## O=S(=O)(NCCNC/C=C/c1ccc(Br)cc1)c1cccc2cnccc12 [H-89]
PC-3 cells [10]
  inhibition of membrane ruffling and cell migration induced by 18:1 LPA and 14:0 LPA: completely inhibited membrane ruffling and cell migration

## lysophosphatidic acid [LPA, reference compound]
LNCaP cells
  calcium mobilization: does not induce the increase of intracellular calcium concentration
interleukin-8 (IL-8)
  IL-8 transcription and secretion: increases interleukin-8 (IL-8) transcription and stimulates IL-8 secretion
LPA2 receptor [14]
  HA-Erk1 phosphorylation: stimulates phosphorylation of HA-Erk1 in a dose-dependent manner
LPA3 receptor [15]
  HA-Erk1 phosphorylation: stimulates phosphorylation of HA-Erk1 in a dose-dependent manner
LPA1 receptor [16]
  HA-Erk1 phosphorylation: stimulates phosphorylation of HA-Erk1 in a dose-dependent manner

## D-3-deoxy-phosphophatidyl-myo-inositol ether lipid [DPIEL]
HT29 cells [2]; HT29 cells (express only LPA2), FIG. 6
  inhibition of (18:1) LPA-induced calcium mobilization: does not inhibit calcium mobilization
OVCAR3 cells; DPIEL about 10 μM exposed group (control about 123.5+/−16.4 nM)
  maximum calcium response to OMPT: about 136.1+/−16.6 nM
OVCAR3 cells; about 20 μM DPIEL
  suppression of the maximum response to OMPT: about 36%
PC-3 cells [3]; FIG. 7
  suppression of maximum calcium mobilization induced by 18:1 LPA: about 56%
ERK1/2; LNCaP cells, FIG. 8B
  inhibition of EGF-induced phosphorylation of ERK1/2: fails to reduce EGF-induced phosphorylation of ERK1/2
ERK1/2; PC-3 cells, DPIEL about 30 minutes, FIG. 8A
  inhibition of ERK1/2 phosphorylation activated by 18:1 LPA and 14:0 LPA: inhibits phosphorylation of the extracellular signal-regulating kinase (ERK1/2)
[1]
  inhibition of VASP phosphorylation: inhibits phosphorylation of vasodilator stimulated protein (VASP)
PC-3 cells [10]
  inhibition of LPA-induced cell migration: inhibits
DU145 cells [17]
  inhibition of LPA-induced cell migration: inhibits

## CCCCCCCCCCCCCC(=O)OC[C@@H](O)COP(=O)(O)OCC(O)CO (mixture of isomers) [14:0 LPG, 1-myristoyl-2-hydroxy-sn-glycero-3-[phospho-rac-(1-glycerol)]]
DU145 cells [4]
  inhibition of 14:0 LPA-induced calcium mobilization: inhibited calcium mobilization; also recorded: effective inhibitor/antagonist
PC-3 cells [5]
  effect on spontaneously activated lamellipodia: negligible effect
  inhibition of 18:1 LPA-induced lamellipodia formation: no inhibition
PC-3 cells [6]; [18]
  inhibition of cell growth (cell viability): inhibition of cell growth (cell viability) at high concentrations
